The record followed here is ChEMBL document CHEMBL1158968, “Novel cytotoxic principles of Formosan Ganoderma lucidum” (1991).

For one assay, the system named is KB. In words: Cytotoxicity against human KB cells after 4 days. Format: functional. As to conditions: 96 h, read-out: ED50 (the source's name).
A short description of assay [1]: Cytotoxicity against human PLC/PRF/5 cells after 4 days. Format: functional. As to conditions: PLC-PRF-5, 96 h, read-out: ED50 (the source's name).

Converted amounts (≈) assume the structure as drawn.

`C/C(=C\CC[C@@H](C)[C@H]1CC[C@@]2(C)C3=C(C(=O)C[C@]12C)[C@@]1(C)CC[C@H](O)C(C)(C)[C@@H]1CC3)CO` [2H-GANODERIC ALDEHYDE A]: the EC50 in the assay on KB worked out at 8.27 µg/mL (≈ 18.1 µM); in assay [1], 10.7 µg/mL (≈ 23.5 µM).

As to `CC(C)[C@@H](C)/C=C/[C@@H](C)[C@H]1CC[C@@H]2[C@]1(C)CC[C@H]1[C@]23C=C[C@]2(C[C@@H](O)CC[C@]12C)OO3` [ERGOSTEROL PEROXIDE], the EC50 with KB is 9.79 µg/mL (≈ 22.8 µM); in assay [1] it was 11 µg/mL (≈ 25.6 µM).

Take `C/C(C=O)=C\CC[C@@H](C)[C@H]1CC[C@@]2(C)C3=C(C(=O)C[C@]12C)[C@@]1(C)CC[C@H](O)C(C)(C)[C@@H]1CC3` [GANODERIC ALDEHYDE A]: the EC50 in the assay on KB came to 1.25 µg/mL (≈ 2.75 µM); in assay [1], 2.54 µg/mL (≈ 5.59 µM).
